Measurements reported in patent US6407094B1, “Glutamate receptor antagonists” (Hoffmann-la Roche Inc., priority 1999, dated 2002).

How the values were obtained:
rat mGlu2 receptor = target: T1, rat mGlu2 receptor (Rattus norvegicus, UniProt P31421); test: [3H]-LY354740 binding on mGlu2 transfected CHO cell membranes
T1 construct: expressed in transfected cells; host or cells: CHO cells, stably transfected with pcD1mGR2 (pcDNA I-amp), G-418 selected; membranes used
T1 sequence (P31421 19-872): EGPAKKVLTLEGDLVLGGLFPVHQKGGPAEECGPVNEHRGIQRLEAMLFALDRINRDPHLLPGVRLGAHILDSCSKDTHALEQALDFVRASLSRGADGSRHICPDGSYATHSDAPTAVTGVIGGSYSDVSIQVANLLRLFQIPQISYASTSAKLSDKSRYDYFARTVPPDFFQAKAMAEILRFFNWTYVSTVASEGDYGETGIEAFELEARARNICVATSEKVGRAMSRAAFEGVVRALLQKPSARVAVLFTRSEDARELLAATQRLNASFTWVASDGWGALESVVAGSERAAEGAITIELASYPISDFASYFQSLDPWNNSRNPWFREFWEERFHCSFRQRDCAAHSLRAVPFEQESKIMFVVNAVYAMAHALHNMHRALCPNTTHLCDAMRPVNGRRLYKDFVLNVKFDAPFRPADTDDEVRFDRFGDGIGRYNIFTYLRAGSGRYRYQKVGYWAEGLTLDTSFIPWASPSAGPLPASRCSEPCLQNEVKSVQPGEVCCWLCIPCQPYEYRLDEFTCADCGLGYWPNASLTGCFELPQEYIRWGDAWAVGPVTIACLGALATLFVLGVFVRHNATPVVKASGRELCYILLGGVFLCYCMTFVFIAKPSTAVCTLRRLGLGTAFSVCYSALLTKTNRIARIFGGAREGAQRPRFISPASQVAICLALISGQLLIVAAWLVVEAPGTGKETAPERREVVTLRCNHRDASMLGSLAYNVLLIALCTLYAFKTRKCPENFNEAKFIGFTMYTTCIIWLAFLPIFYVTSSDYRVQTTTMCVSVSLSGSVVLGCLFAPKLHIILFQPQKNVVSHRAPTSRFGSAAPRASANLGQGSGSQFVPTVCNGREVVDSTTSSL

melting point | Ki (rat mGlu2 receptor) [nM] | Compound
222 °C (dec.) | 35 | N#Cc1cccc(C2=Nc3cc(OCC4COC(=O)O4)c(C#Cc4ccccc4)cc3NC(=O)C2)c1 (racemic) [Example 28, [RS]-3-[4-Oxo-8-(2-oxo-[1,3]dioxolan-4-ylmethoxy)-7-phenylethynyl-4,5-dihydro-3H-benzo[b][1,4]diazepin-2-yl]-benzonitrile]
– | 28 | N#Cc1cccc(C2=Nc3cc(Cl)c(C#Cc4ccccc4)cc3NC(=O)C2)c1 [Example 3, 3-(8-Chloro-4-oxo-7-phenylethynyl-4,5-dihydro-3H-benzo[b][1,4]diazepin-2-yl)-benzonitrile]
242 to 244 °C (dec.) | 120 | N#Cc1cccc(C2=Nc3cc(Cl)c(-c4ccccc4)cc3NC(=O)C2)c1 [Example 7, 3-(8-Chloro-4-oxo-7-phenyl-4,5-dihydro-3H-benzo[b][1,4]diazepin-2-yl)-benzonitrile]
201 °C (dec.) | 51 | COC(=O)CSc1cc2c(cc1C#Cc1ccccc1)NC(=O)CC(c1cccc(C#N)c1)=N2 [Example 12, [4-(3-Cyano-phenyl)-2-oxo-8-phenylethynyl-2,3-dihydro-1H-benzo[b][1,4]diazepin-7-ylsulfanyl]-acetic acid methyl ester]
250 °C (dec.) | 37 | N#Cc1cccc(C2=Nc3cc(CC(N)=O)c(C#Cc4ccccc4)cc3NC(=O)C2)c1 [Example 17, 2-[4-(3-Cyano-phenyl)-2-oxo-8-phenylethynyl-2,3-dihydro-1H-benzo[b][1,4]diazepin-7-yl]-acetamide]
> 250 °C | 46 | COc1cc2c(cc1C#Cc1ccccc1)NC(=O)CC(c1cccc(C#N)c1)=N2 [Example 20, 3-(8-Methoxy-4-oxo-7-phenylethynyl-4,5-dihydro-3H-benzo[b][1,4]diazepin-2-yl)-benzonitrile]
262 °C (dec.) | 16 | N#CCc1cc2c(cc1C#Cc1ccccc1)NC(=O)CC(c1cccc(C#N)c1)=N2 [Example 23, 3-(8-Cyanomethyl-4-oxo-7-phenylethynyl-4,5-dihydro-3H-benzo[b][1,4]diazepin-2-yl)-benzonitrile]
192 °C (dec.) | 21 | COCCOc1cc2c(cc1C#Cc1ccccc1)NC(=O)CC(c1cccc(I)c1)=N2 [Example 25]
187 to 189 °C | 12 | COCCOc1cc2c(cc1C#Cc1ccccc1)NC(=O)CC(c1cccc(-n3ccnc3)c1)=N2 [Example 27, 4-(3-Imidazol-1-yl-phenyl)-7-(2-methoxy-ethoxy)-8-phenylethynyl-1,3-dihydro-benzo[b][1,4]diazepin-2-one]
227 °C | 18 | O=C1CC(c2cccc(-n3ccnc3)c2)=Nc2cc(CO)c(C#Cc3ccccc3)cc2N1 [Example 32, 7-Hydroxymethyl-4-(3-imidazol-1-yl-phenyl)-8-phenylethynyl-1,3-dihydro-benzo[b][1,4]diazepin-2-one]
196 to 197 °C | – | COCCOc1cc2c(cc1-c1ccc(F)cc1)NC(=O)CC(c1cccc(-n3ccnc3)c1)=N2 [Example 57, 8-(4-Fluoro-phenyl)-4-(3-imidazol-1-yl-phenyl)-7-(2-methoxy-ethoxy)-1,3-dihydro-benzo[b][1,4]diazepin-2-one]
225 °C | – | O=C1CC(c2cccc(-n3ccnc3)c2)=Nc2cc(OCCO)c(-c3ccc(F)cc3)cc2N1 [Example 58, 8-(4-Fluoro-phenyl)-7-(2-hydroxy-ethoxy)-4-(3-imidazol-1-yl-phenyl)-1,3-dihydro-benzo[b][1,4]diazepin-2-one]
230 °C | – | O=C1CC(c2cccc(-n3ccnc3)c2)=Nc2cc(N3CCOC3=O)c(-c3ccc(F)cc3)cc2N1 [Example 59, 8-(4-Fluoro-phenyl)-4-(3-imidazol-1-yl-phenyl)-7-(2-oxo-oxazolidin-3-yl)-1,3-dihydro-benzo[b][1,4]diazepin-2-one]
225 °C | – | COc1cc2c(cc1-c1ccc(F)cc1C)NC(=O)CC(c1cccc(-n3ccnc3)c1)=N2 [Example 60, 8-(4-Fluoro-2-methyl-phenyl)-4-(3-imidazol-1-yl-phenyl)-7-methoxy-1,3-dihydro-benzo[b][1,4]diazepin-2-one]
155 to 158 °C | – | O=C1CC(c2cccc(-n3ccnc3)c2)=Nc2cc(N3CC[C@@H](O)C3)c(-c3ccc(F)cc3)cc2N1 [Example 63, 8-(4-Fluoro-phenyl)-7-((R)-3-hydroxy-pyrrolidin-1-yl)-4-(3-imidazol-1-yl-phenyl)-1,3-dihydro-benzo[b][1,4]diazepin-2-one]
216 °C (dec.) | – | COc1cc2c(cc1-c1ccccc1F)NC(=O)CC(c1cccc(-n3ccnc3)c1)=N2 [Example 64, 8-(2-Fluoro-phenyl)-4-(3-imidazol-1-yl-phenyl)-7-methoxy-1,3-dihydro-benzo[b][1,4]diazepin-2-one]
> 250 °C | – | N#Cc1cccc(C2=Nc3cc(O)c(-c4ccc(F)cc4)cc3NC(=O)C2)c1 [Example 65, 3-[7-(4-Fluoro-phenyl)-8-hydroxy-4-oxo-4,5-dihydro-3H-benzo[b][1,4]diazepin-2-yl]-benzonitrile]

melting point | Ki (rat mGlu2 receptor) [nM] | Compound
> 250 °C | – | N#Cc1cccc(C2=Nc3cc(O)c(-c4ccccc4F)cc3NC(=O)C2)c1 [Example 66, 3-[7-(2-Fluoro-phenyl)-8-hydroxy-4-oxo-4,5-dihydro-3H-benzo[b][1,4]diazepin-2-yl]-benzonitrile]
245 to 247 °C | – | COc1cc2c(cc1-c1ccccc1F)NC(=O)CC(c1cccc(C#N)c1)=N2 [Example 67, 3-[7-(2-Fluoro-phenyl)-8-methoxy-4-oxo-4,5-dihydro-3H-benzo[b][1,4]diazepin-2-yl]-benzonitrile]
188 °C (dec.) | – | COc1cc2c(cc1-c1ccccc1F)NC(=O)CC(c1cccc(-n3cnnc3)c1)=N2 [Example 70, 8-(2-Fluoro-phenyl)-7-methoxy-4-(3-[1,2,4]triazol-4-yl-phenyl)-1,3-dihydro-benzo[b][1,4]diazepin-2-one]
> 250 °C | – | COc1cc2c(cc1-c1ccccc1F)NC(=O)CC(c1cc(C#N)ccc1F)=N2 [Example 73, 4-Fluoro-3-[7-(2-fluoro-phenyl)-8-methoxy-4-oxo-4,5-dihydro-3H-benzo[b][1,4]diazepin-2-yl]-benzonitrile]
164 °C | – | N#Cc1cc(C2=Nc3cc(O)c(-c4ccc(F)cc4)cc3NC(=O)C2)ccn1 [Example 74, 4-[7-(4-Fluoro-phenyl)-8-hydroxy-4-oxo-4,5-dihydro-3H-benzo[b][1,4]diazepin-2-yl]-pyridine-2-carbonitrile]
253 °C | – | N#Cc1cccc(C2=Nc3cc(N4CCC5(CC4)OCCO5)c(-c4ccccc4F)cc3NC(=O)C2)c1 [Example 76, 3-[8-(1,4-Dioxa-8-aza-spiro[4.5]dec-8-yl)-7-(2-fluoro-phenyl)-4-oxo-4,5-dihydro-3H-benzo[b][1,4]diazepin-2-yl]-benzonitrile]
225 °C | – | O=C1CC(c2cccc(-n3ccnc3)c2)=Nc2cc(N3CCC4(CC3)OCCO4)c(-c3ccccc3F)cc2N1 [Example 77, 7-(1,4-Dioxa-8-aza-spiro[4.5]dec-8-yl)-8-(2-fluoro-phenyl)-4-(3-imidazol-1-yl-phenyl)-1,3-dihydro-benzo[b][1,4]diazepin-2-one]
230 °C | – | O=C1CCN(c2cc3c(cc2-c2ccccc2F)NC(=O)CC(c2cccc(-n4ccnc4)c2)=N3)CC1 [Example 78, 8-(2-Fluoro-phenyl)-4-(3-imidazol-1-yl-phenyl)-7-(4-oxo-piperidin-1-yl)-1,3-dihydro-benzo[b][1,4]diazepin-2-one]
> 250 °C | – | N#Cc1cc(C2=Nc3cc(O)c(-c4ccccc4F)cc3NC(=O)C2)ccn1 [Example 80, 4-[7-(2-Fluoro-phenyl)-8-hydroxy-4-oxo-4,5-dihydro-3H-benzo[b][1,4]diazepin-2-yl]-pyridine-2-carbonitrile]
251 °C | – | COc1cc2c(cc1-c1cc(F)ccc1F)NC(=O)CC(c1cccc(C#N)c1)=N2 [Example 82, 3-[7-(2,5-Difluoro-phenyl)-8-methoxy-4-oxo-4,5-dihydro-3H-benzo[b][1,4]diazepin-2-yl]-benzonitrile]
242 °C | – | N#Cc1ccsc1C1=CC(=O)Nc2cc(-c3ccccc3F)c(O)cc2N1 [Example 84, 2-[7-(2-Fluoro-phenyl)-8-hydroxy-4-oxo-4,5-dihydro-1H-benzo[b][1,4]diazepin-2yl]-thiophene-3-carbonitrile]
> 250 °C | – | O=C1CC(c2cccc(-n3ccnn3)c2)=Nc2cc(O)c(-c3ccc(F)cc3)cc2N1 [Example 86, 8-(4-Fluoro-phenyl)-7-hydroxy-4-(3-[1,2,3]triazol-1-yl-phenyl)-1,3-dihydro-benzo[b][1,4]diazepin-2-one]
211 to 213 °C | – | COCCOc1cc2c(cc1-c1ccccc1F)NC(=O)CC(c1cccc(C#N)c1)=N2 [Example 87, 3-[7-(2-Fluoro-phenyl)-8-(2-methoxy-ethoxy)-4-oxo-4,5-dihydro-3H-benzo[b][1,4]diazepin-2-yl]-benzonitrile]
90 to 91 °C | – | N#Cc1cccc(C2=Nc3cc(CO)c(-c4ccccc4F)cc3NC(=O)C2)c1 [Example 88, 3-[7-(2-Fluoro-phenyl)-8-hydroxymethyl-4-oxo-4,5-dihydro-3H-benzo[b][1,4]diazepin-2-yl]-benzonitrile]
243 °C | – | O=C1CC(c2cccc(-n3ccnn3)c2)=Nc2cc(O)c(C#Cc3ccc(F)cc3)cc2N1 [Example 92, 8-(4-Fluoro-phenylethynyl)-7-hydroxy-4-(3-[1,2,3]triazol-1-yl-phenyl)-1,3-dihydro-benzo[b][1,4]diazepin-2-one]
227 to 230 °C (dec.) | – | COCCOc1cc2c(cc1C#Cc1ccccc1)NC(=O)CC(c1cccc(C(N)=O)c1)=N2 [Example 95, 3-[8-(2-Methoxy-ethoxy)-4-oxo-7-phenylethynyl-4,5-dihydro-3H-benzo[b][1,4]diazepin 2-yl]-benzamide]
